Measured values published in patent US11040963B2 (priority 2017, dated 2021).
pIC50: −log10 of the molar value.

Tests used:
[1] = target: HA H1 A/California/07/09 (Influenza A virus (A/California/07/2009(H1N1)), UniProt C3W5X2); test: biochemical; settings: Competition binding (AlphaLISA), pIC50 H1 A/California/07/09
[2] = target: HA H1 A/New Caledonia/20/99 (Influenza A virus (A/New Caledonia/20/1999(H1N1)), UniProt Q6WG00); test: biochemical; settings: Competition binding (AlphaLISA), pIC50 H1 A/New Caledonia/20/99
[3] = target: HA H5 A/Vietnam/1203/04 (Influenza A virus (A/Vietnam/1203/2004(H5N1)), UniProt Q5EP31); test: biochemical; settings: Competition binding (AlphaLISA), pIC50 H5 A/Vietnam/1203/04
H1N1 A/California/07/09 = test: microbe, parasite or virus in culture; type: cell-based, influenza A virus; settings: Influenza A virus, H1N1, MDCK, 96 h, read-out: Virus neutralization assay (VNA), pEC50 H1N1 A/California/07/09 (converted)
[4] = tested on: H1N1 A/New Caledonia/20/99; test: microbe, parasite or virus in culture; type: cell-based, influenza A virus; settings: Influenza A virus, H1N1, MDCK, 96 h, read-out: Virus neutralization assay (VNA), pEC50 H1N1 A/New Caledonia/20/99 (converted)
H5N1 A/Vietnam/1203/04 = test: microbe, parasite or virus in culture; type: cell-based, influenza A virus; settings: Influenza A virus, H5N1, MDCK, 96 h, read-out: Virus neutralization assay (VNA), pEC50 H5N1 A/Vietnam/1203/04, MDCK cells, 96 h, CPE by ATPlite (converted); average of repeats
in vitro = settings: dog, Cytotoxicity (pCC50) MDCK

SMILES | pIC50 [1] | pIC50 [2] | pIC50 [3] | EC50 (H1N1 A/California/07/09) [nM] | EC50 [4] [nM] | EC50 (H5N1 A/Vietnam/1203/04) [nM] | CC50 (in vitro) [nM]
COC(=O)C(c1ccccc1)N1CCN(C(=O)c2cccc(-c3nc4ccccc4o3)c2)CC1 (stereo not shown) [Example 31] | 7.50 | 7.60 | 5.90 | 316 | 158 | 7940 | > 50100
Cc1nnc([C@@H](c2ccccc2)N2CCN(C(=O)c3cccc(-c4nc5c(C)cccc5o4)c3)CC2)o1 [Example 32] | 7.20 | 7.10 | 5.40 | 316 | 158 | 25100 | 15800
COC(=O)[C@@H](c1ccccc1)N1CCN(C(=O)c2cccc(-c3nc4ccccc4s3)c2)CC1 [Example 33] | 7.30 | 7.50 | 6.40 | 501 | 158 | 7940 | 39800
O=C(c1cc(-c2nc3cc(C(F)(F)F)ccc3o2)ccn1)N1CCN(C(c2ccccc2)c2nnc(C3CC3)o2)CC1 (stereo not shown) [Example 34] | 7.50 | 7.20 | 5.90 | 126 | 251 | 12600 | 39800
Cc1nnc(C(c2ccccc2)N2CCN(C(=O)c3cccc(-c4nc5cc(N(C)C)ccc5o4)c3)CC2)o1 (stereo not shown) [Example 35] | 7.80 | 7.80 | 6.20 | 200 | 158 | 6310 | 25100
COc1ccc2oc(-c3cccc(C(=O)N4CCN(C(c5ccccc5)c5nnc(C)o5)CC4)c3)nc2c1 (stereo not shown) [Example 36] | 7.60 | 7.60 | 6.00 | 158 | 126 | 7940 | 20000
COC(=O)[C@@H](c1ccccc1)N1CCN(C(=O)c2cccc(-c3nc4cc(C(F)(F)F)ccc4o3)c2)[C@H](C)C1 [Example 37] | 7.20 | 7.30 | 5.80 | 251 | 251 | 31600 | > 50100
Cc1nnc([C@@H](c2ccccc2)N2CCN(C(=O)c3cccc(-c4ncc5ccccc5n4)c3)CC2)o1 [Example 38] | 7.30 | 7.30 | 5.70 | 316 | 200 | 7940 | > 50100
CNc1ccc2oc(-c3cccc(C(=O)N4CCN(C(c5ccccc5)c5nnc(C)o5)CC4)c3)nc2c1 (stereo not shown) [Example 39] | 7.60 | 7.50 | 5.80 | 316 | 200 | 10000 | 15800
Cc1nnc(C(c2ccccc2)N2CCN(C(=O)c3cc(-c4nc5cc(C(F)(F)F)ccc5o4)ccn3)CC2)o1 (stereo not shown) [Example 40] | 7.50 | 7.30 | 5.90 | 158 | 251 | 10000 | 12600
COC(=O)C(c1ccccc1)N1CCN(C(=O)c2cccc(-c3nc4cc(C(F)(F)F)ccc4o3)c2)CC1 (stereo not shown) [Example 42] | 7.40 | 7.40 | 6.00 | 316 | 251 | 15800 | > 50100
COC(=O)C(c1ccccc1)N1CCN(C(=O)c2cccc(-c3nc4ccncc4o3)c2)CC1 (stereo not shown) [Example 43] | 7.50 | 7.60 | 5.90 | 398 | 251 | 10000 | > 50100
Cc1nnc(C(c2ccccc2)N2CCN(C(=O)c3cccc(-c4nc5cc(O)ccc5o4)c3)CC2)o1 (stereo not shown) [Example 44] | 7.30 | 7.30 | 5.80 | 398 | 316 | 12600 | 39800
Cc1nnc([C@@H](c2ccccc2)N2CCN(C(=O)c3cc(-c4nc5cc(C(F)(F)F)ccc5o4)ccc3F)CC2)o1 [Example 45] | 7.20 | 7.00 | 5.10 | 251 | 316 | 50100 | > 50100
COC(=O)[C@H](c1ccccc1)N1CCN(C(=O)c2cccc(-c3nc4cc(C(F)(F)F)ccc4o3)c2)[C@H](C(N)=O)C1 [Example 46] | 7.50 | 7.50 | 6.10 | 200 | 158 | 15800 | 39800
Cc1nnc(C(c2ccccc2)N2CCN(C(=O)c3cccc(-c4nc5cc(F)ccc5o4)c3)CC2)o1 (stereo not shown) [Example 47] | 7.10 | 7.10 | 5.00 | 398 | 316 | 15800 | 31600
Cc1nnc(C(c2ccccc2)N2CCN(C(=O)c3cc(-c4nc5cc(OC(F)(F)F)ccc5o4)ccn3)CC2)s1 (stereo not shown) [Example 49] | 6.60 | 6.70 | 5.40 | 501 | 316 | 31600 | 15800
COC(=O)C(c1ccccc1)N1CCN(C(=O)c2cccc(-c3nc4cccnc4o3)c2)CC1 (stereo not shown) [Example 50] | 7.20 | 7.20 | 5.40 | 794 | 316 | 31600 | > 50100
CC(=O)Nc1ccc2oc(-c3cccc(C(=O)N4CCN(C(c5ccccc5)c5nnc(C)o5)CC4)c3)nc2c1 (stereo not shown) [Example 51] | 7.80 | 7.90 | 6.20 | 251 | 251 | 15800 | 50100
Cn1ccc(C(c2ccccc2)N2CCN(C(=O)c3cccc(-c4nc5cc(C(F)(F)F)ccc5o4)c3)CC2)n1 (stereo not shown) [Example 53] | 5.30 | 5.40 | 4.70 | 1000 | 398 | > 50100 | > 50100
COC(=O)C(c1ccccc1)N1CCN(C(=O)c2cncc(-c3nc4ccc(OC)cc4s3)c2)CC1 (stereo not shown) [Example 54] | 7.00 | 7.30 | 6.40 | 1260 | 398 | 6310 | 50100
COc1ccc2nc(-c3cccc(C(=O)N4CCN(C(C(=O)NCCCN)c5ccccc5)CC4)c3)sc2c1 (stereo not shown) [Example 55] | 7.20 | 7.30 | 6.20 | 2000 | 398 | 10000 | > 50100
COc1ccc2nc(-c3cccc(C(=O)N4CCN(C(c5ccccc5)c5nncs5)CC4)c3)sc2c1 (stereo not shown) [Example 56] | 6.40 | 6.80 | 5.50 | 5010 | 398 | > 50100 | > 50100
O=C(c1cccc(-c2nc3cc(C(F)(F)F)ccc3o2)c1)N1CCN(C(c2ccccc2)c2nnc(C3(O)CCC3)o2)CC1 (stereo not shown) [Example 57] | 7.30 | 7.10 | 5.60 | 251 | 501 | 20000 | 39800
COC(=O)[C@@H](c1ccccc1)N1CCN(C(=O)c2cccc(-c3nc4cc(C(F)(F)F)ccc4o3)c2)[C@@H](CC(N)=O)C1 [Example 58] | 7.40 | 7.50 | 6.00 | 398 | 398 | 5010 | 39800
